# From publication PMC8786148, “The effects of magainin 2-derived and rationally designed antimicrobial peptides on Mycoplasma pneumoniae” (PLoS ONE, 2022)
# Experiments:
# Mycoplasma pneumoniae FH [1] = test: Biofilm assay (crystal violet, absorbance at 550 nm), strain FH; settings: initial 10^5 CFU/mL, 0% CO2, 6-8 days at 37°C, p < 0.005, Shirley-Williams test
# Mannheimia haemolytica = system: Mannheimia haemolytica; design: method as in PMID 29771981; settings: bovine pathogen; cited from earlier work
# Mycoplasma pneumoniae FH [2] = test: Killing assay, strain FH; settings: 30 μmol/L AMP, 3 days
# M. bovis = settings: cited from earlier work
# Pasteurella multocida = system: Pasteurella multocida; design: method as in PMID 29771981; settings: bovine pathogen; cited from earlier work
# Histophilus somni = system: Histophilus somni; design: method as in PMID 29771981; settings: bovine pathogen; cited from earlier work
# [3] = previously reported; cited from earlier work
# [4] = system: M. pneumoniae strains FH, M52, Mac, Bru, and M129-B7; test: Propidium iodide (PI) uptake assay, membrane disruption; assay type: cell-based, Mycoplasma pneumoniae; settings: five strains; 10 μmol/L AMP; PI 5 μg/mL in PBS; read every 2 min up to 20 min; triplicate
# Procedure: We performed the PI uptake assays based on the previously described method with modification for M. pneumoniae. M. pneumoniae strains FH, M52, Mac, Bru, and M129-B7 were cultured as described above. Briefly, the 90 mL culture was done in PPLO-based medium for 6 days to observe the medium color change from red to yellow. The mycoplasma in the culture medium was centrifuged at 11,740g for 30 min at 4°C, and the precipitation was suspended in 20 mL phosphate buffered saline (PBS) by passing through a 60 mm-length 25-gauge needle (Top Corporation, Tokyo, Japan) three times. The suspension was centrifuged again at 11,740g for 30 min at 4°C, and 2.25 mL PBS was added to the precipitation. The 2× mycoplasma suspension was prepared by passing through a 60 mm-length 25-gauge needle five times. When using heat-killed M. pneumoniae (HKMp), the 2× suspension was heated at 95°C for 10 min. The 2× PI assay reaction mix based on PBS containing 20 μmol/L of an antimicrobial peptide or saline, and 10 μg/mL PI (Dojindo, Tokyo, Japan). Each assay was performed with a 96-well black flat-bottomed plate (PerkinElmer, Waltham, MA, USA) using a final cell volume of 100 μL prepared by mixing 2× mycoplasma suspension and 2× PI assay reaction mix at 1:1 in volume ratio. The intercalation fluorescence of PI was measured by using an Infinite 200 Pro F Plex microplate reader (Tecan, Zürich, Switzerland) every 2 min, with an excitation filter at 535 nm (half width: 25 nm) and an emission filter at 620 nm (half width: 20 nm). The averages and standard deviations of the fluorescent intensities was calculated, and normalised by an average fluorescence between 10 and 20 min of HKMp as 100% relative fluorescence, and by a minimum average fluorescence between 0 and 20 min of whole data as 0% relative fluorescence.
# Mycoplasma pneumoniae FH [5] = test: Colorimetric assay (absorbance at 560 nm), strain FH; settings: initial 10^5 CFU/mL, 0% CO2, up to 30 μmol/L
substance,measurement,setting,value
"H-TVIEVASKMCSKMRLLKGLCKSITKRFLRR-NH2 [NK2A, reference compound]",Concentration with statistically significant effect in the biofilm assay,Mycoplasma pneumoniae FH [1],30 µmol/L
same,Effective concentration against Mannheimia haemolytica,Mannheimia haemolytica,5 µmol/L
same,Killing assay result compared with saline,"Mycoplasma pneumoniae FH [2]; Welch's t test, p < 0.005",limited influence on the growth
same,"Cell numbers (CFU/mL) after treatment with antimicrobial peptides, killing assay","Mycoplasma pneumoniae FH [2]; initial 10^6 CFU/mL, triplicate, mean, saline 3.59×10^6",2.87×10^6 CFU/mL
same,Effective concentration against M. bovis,M. bovis,20 µmol/L
same,Effective concentration against Pasteurella multocida,Pasteurella multocida,5 µmol/L
same,Effective concentration against Histophilus somni,Histophilus somni,5 µmol/L
same,Haemolysis (concentration with haemolytic effect),[3],5 µmol/L
same,PI fluorescence compared with live Mp without peptide,[4],the PI fluorescence arose
same,Effect in the colorimetric assay,Mycoplasma pneumoniae FH [5],no difference
